Test results: PubChem BioAssay AID1259407 (Chemical Carcinogenesis Research Information System (CCRIS), 2018)
Active and inactive are the calls of the source. The rule behind the calls is not given here.

Tested on: CCRIS mutagenicity, Ames/micronucleus/aberration tests
Experiment: CCRIS mutagenicity studies
[1] = Test System: AMES SALMONELLA TYPHIMURIUM, Strain/Indicator: TA98, Metabolic Activation: NONE, Method: PREINCUBATION
[2] = Test System: AMES SALMONELLA TYPHIMURIUM, Strain/Indicator: TA100, Metabolic Activation: NONE, Method: PREINCUBATION
[3] = Test System: AMES SALMONELLA TYPHIMURIUM, Strain/Indicator: TA100, Metabolic Activation: RAT, LIVER, S-9, PCB, Method: PREINCUBATION

Measured: mutagenic call

COc1ccc2cc([C@H](C)C(=O)O)ccc2c1
inactive: Test System: AMES SALMONELLA TYPHIMURIUM, Strain/Indicator: TA97A, Metabolic Activation: NONE, Method: STANDARD PLATE inactive; negative | Test System: AMES SALMONELLA TYPHIMURIUM, Strain/Indicator: TA97A, Metabolic Activation: RAT, LIVER, S-9, PHENOBARBITAL, Method: STANDARD PLATE inactive; negative | Test System: AMES SALMONELLA TYPHIMURIUM, Strain/Indicator: TA98, Metabolic Activation: GUINEA PIG, LIVER, S-9, PCB, Method: PREINCUBATION inactive; negative | Test System: AMES SALMONELLA TYPHIMURIUM, Strain/Indicator: TA98, Metabolic Activation: HAMSTER, LIVER, S-9, PCB, Method: PREINCUBATION inactive; negative | Test System: AMES SALMONELLA TYPHIMURIUM, Strain/Indicator: TA98, Metabolic Activation: MOUSE, LIVER, S-9, PCB, Method: PREINCUBATION inactive; negative | [1] inactive; negative | Test System: AMES SALMONELLA TYPHIMURIUM, Strain/Indicator: TA98, Metabolic Activation: RAT, LIVER, S-9, PCB, Method: PREINCUBATION inactive; negative | Test System: AMES SALMONELLA TYPHIMURIUM, Strain/Indicator: TA98, Metabolic Activation: RAT, LIVER, S-9, PCB, Method: STANDARD PLATE inactive; negative | Test System: AMES SALMONELLA TYPHIMURIUM, Strain/Indicator: TA100, Metabolic Activation: GUINEA PIG, LIVER, S-9, PCB, Method: PREINCUBATION inactive; negative | Test System: AMES SALMONELLA TYPHIMURIUM, Strain/Indicator: TA100, Metabolic Activation: HAMSTER, LIVER, S-9, PCB, Method: PREINCUBATION inactive; negative | Test System: AMES SALMONELLA TYPHIMURIUM, Strain/Indicator: TA100, Metabolic Activation: MOUSE, LIVER, S-9, PCB, Method: PREINCUBATION inactive; negative | [2] inactive; negative | Test System: AMES SALMONELLA TYPHIMURIUM, Strain/Indicator: TA100, Metabolic Activation: NONE, Method: STANDARD PLATE inactive; negative | [3] inactive; negative | Test System: AMES SALMONELLA TYPHIMURIUM, Strain/Indicator: TA100, Metabolic Activation: RAT, LIVER, S-9, PCB, Method: STANDARD PLATE inactive; negative | Test System: AMES SALMONELLA TYPHIMURIUM, Strain/Indicator: TA100, Metabolic Activation: RAT, LIVER, S-9, PHENOBARBITAL, Method: STANDARD PLATE inactive; negative | Test System: AMES SALMONELLA TYPHIMURIUM, Strain/Indicator: TA102, Metabolic Activation: NONE, Method: STANDARD PLATE inactive; negative | Test System: AMES SALMONELLA TYPHIMURIUM, Strain/Indicator: TA102, Metabolic Activation: RAT, LIVER, S-9, PHENOBARBITAL, Method: STANDARD PLATE inactive; negative | Test System: AMES SALMONELLA TYPHIMURIUM, Strain/Indicator: TA1537, Metabolic Activation: RAT, LIVER, S-9, PCB, Method: STANDARD PLATE inactive; negative | Test System: AMES SALMONELLA TYPHIMURIUM, Strain/Indicator: TA1538, Metabolic Activation: RAT, LIVER, S-9, PCB, Method: STANDARD PLATE inactive; negative | Test System: E. COLI, Strain/Indicator: WP2 UVRA, Metabolic Activation: RAT, LIVER, S-9, PCB, Method: STANDARD PLATE inactive; negative

O=C/C(Cl)=C(/Cl)C(=O)O
active: Test System: AMES SALMONELLA TYPHIMURIUM, Strain/Indicator: TA1535, Metabolic Activation: NONE, Method: STANDARD PLATE active; positive | Test System: CHINESE HAMSTER OVARY, Strain/Indicator: CHO-KTL3 (HPRT)/6-THIOGUANINE, Metabolic Activation: NONE active; positive

Oc1ccc(-c2ccc(O)cc2)cc1
inactive: Test System: AMES SALMONELLA TYPHIMURIUM, Strain/Indicator: TA97, Metabolic Activation: NONE, Method: PREINCUBATION inactive; negative | Test System: AMES SALMONELLA TYPHIMURIUM, Strain/Indicator: TA97, Metabolic Activation: RAT, LIVER, S-9, AROCLOR 1254, Method: PREINCUBATION inactive; negative | [1] inactive; negative | Test System: AMES SALMONELLA TYPHIMURIUM, Strain/Indicator: TA98, Metabolic Activation: RAT, LIVER, S-9, AROCLOR 1254, Method: PREINCUBATION inactive; negative | [2] inactive; negative | Test System: AMES SALMONELLA TYPHIMURIUM, Strain/Indicator: TA100, Metabolic Activation: RAT, LIVER, S-9, AROCLOR 1254, Method: PREINCUBATION inactive; negative | Test System: AMES SALMONELLA TYPHIMURIUM, Strain/Indicator: TA102, Metabolic Activation: NONE, Method: PREINCUBATION inactive; negative | Test System: AMES SALMONELLA TYPHIMURIUM, Strain/Indicator: TA102, Metabolic Activation: RAT, LIVER, S-9, AROCLOR 1254, Method: PREINCUBATION inactive; negative | Test System: AMES SALMONELLA TYPHIMURIUM, Strain/Indicator: TA104, Metabolic Activation: NONE, Method: PREINCUBATION inactive; negative | Test System: AMES SALMONELLA TYPHIMURIUM, Strain/Indicator: TA104, Metabolic Activation: RAT, LIVER, S-9, AROCLOR 1254, Method: PREINCUBATION inactive; negative | Test System: AMES SALMONELLA TYPHIMURIUM, Strain/Indicator: TA1535, Metabolic Activation: NONE, Method: PREINCUBATION inactive; negative | Test System: AMES SALMONELLA TYPHIMURIUM, Strain/Indicator: TA1535, Metabolic Activation: RAT, LIVER, S-9, AROCLOR 1254, Method: PREINCUBATION inactive; negative | Test System: CHINESE HAMSTER V-79, Strain/Indicator: V-79/6-THIOGUANINE, Metabolic Activation: NONE inactive; negative

Cc1ccc(NO)cc1C
active: [2] active; positive | [3] active; positive

C=CC1=C(C)C(=O)N/C1=C\c1[nH]c(Cc2[nH]c(/C=C3\NC(=O)C(C)=C3C=C)c(C)c2CCC(=O)NCCS(=O)(=O)O)c(CCC(=O)NCCS(=O)(=O)O)c1C
inactive: Test System: Ames Salmonella typhimurium, Strain/Indicator: TA98, Metabolic Activation: Liver, S-9, Method: Preincubation inactive; negative | Test System: Ames Salmonella typhimurium, Strain/Indicator: TA98, Metabolic Activation: None, Method: Preincubation inactive; negative | Test System: Ames Salmonella typhimurium, Strain/Indicator: TA100, Metabolic Activation: Liver, S-9, Method: Preincubation inactive; negative | Test System: Ames Salmonella typhimurium, Strain/Indicator: TA100, Metabolic Activation: None, Method: Preincubation inactive; negative | Test System: Ames Salmonella typhimurium, Strain/Indicator: TA102, Metabolic Activation: Liver, S-9, Method: Preincubation inactive; negative | Test System: Ames Salmonella typhimurium, Strain/Indicator: TA102, Metabolic Activation: None, Method: Preincubation inactive; negative

COc1cc2c(cc1O)CC1c3c(cc(OC)c(O)c3-2)CC[N+]1(C)C (centres undefined)
inactive: Test System: AMES SALMONELLA TYPHIMURIUM, Strain/Indicator: TA100, Metabolic Activation: RAT, LIVER, S-9, PHENOBARBITAL AND BETA-NAPHTHOFLAVONE, Method: PREINCUBATION inactive; negative

Nc1c([N+](=O)[O-])cccc1[N+](=O)[O-]
active: [1] active; positive | Test System: AMES SALMONELLA TYPHIMURIUM, Strain/Indicator: TA98, Metabolic Activation: RAT, LIVER, S-9, KANECHLOR 500, Method: PREINCUBATION active; positive | [2] active; positive | Test System: AMES SALMONELLA TYPHIMURIUM, Strain/Indicator: TA100, Metabolic Activation: RAT, LIVER, S-9, KANECHLOR 500, Method: PREINCUBATION active; positive
